Laboratory results taken from US10519119B2, “Nicotinic acid derivatives, their preparation and the use thereof” (XIAMEN INSTITUTE OF RARE EARTH MATERIALS, priority 2017, dated 2019).

Legend:
[1] = test system: human lung cancer cell line A549; assay: MTT test of activity in inhibiting human lung cancer cell A549; type: cell-based; conditions: for IC50: Homo sapiens, A549 cells, MTT method, cultivation 24 h with drug, OD at 595 nm; for inhibitory activity on lung cancer cell line A549: statement in words
Experimental: (§1) The specific test process was as follows:
(§2) (1) The lung cancer cell line A549 was plated in a 96-well plate and cultured in 100 μL medium. Until the cells were grown to 90%, 1 μL of the drug (i.e., the above example compounds) was added to the wells, each drug was tested for 8 different concentrations (the initial concentration of the drug, 50 μM, 5 μM, 500 nM, 50 nM, 5 nM, […], respectively), and each concentration of drug was experimented in 3 wells. After cultivation for 24 h, 20 μL of the already formulated 5 mg/mL MTT solution was added to each well, and the medium was aspirated after 4 hours, 150 μL DMSO was added to each well and its optical density (OD) value was measured at a wavelength of 595 nm. The negative control was DMSO.
(§3) The IC50 value was calculated by GraphPad Prism5 software.

[2] = test system: colorectal cancer cell line HCT-116; assay: MTT test of activity in inhibiting colorectal cancer cell line HCT-116; type: cell-based, human; conditions: for IC50: Homo sapiens, HCT-116 cells, MTT method, same procedure as A549; for inhibitory activity on colorectal cancer cell line HCT116: statement in words
Experimental: [The procedure below names another cell line; the source lists this cell line under the same test.] as §1, §2, §3

[3] = test system: breast cancer cell line MCF-7; assay: MTT test of activity in inhibiting breast cancer cell line MCF-7; type: cell-based, human; conditions: for IC50: Homo sapiens, MCF7, MCF-7 cells, MTT method, same procedure as A549; for inhibitory activity on breast cancer cell line MCF-7: statement in words
Experimental: [The procedure below names another cell line; the source lists this cell line under the same test.] as §1, §2, §3

| SMILES | IC50 [1] [µM] | inhibitory activity on lung cancer cell line A549 [1] | IC50 [2] [µM] | inhibitory activity on colorectal cancer cell line HCT116 [2] | IC50 [3] [µM] | inhibitory activity on breast cancer cell line MCF-7 [3] |
| --- | --- | --- | --- | --- | --- | --- |
| COc1ccc(-c2cc(COC(=O)c3cc(Cl)cnc3Cl)on2)cc1 [YP-44] | 172 | strong inhibitory activity | 1640 | strong inhibitory activity | 149 | strong inhibitory activity |
| O=C(OCc1cc(-c2ccc(Cl)cc2)no1)c1cc(Cl)cnc1Cl [YP-51] | 187 | strong inhibitory activity | – | strong inhibitory activity | – | strong inhibitory activity |
| COc1ccc(-c2cc(COC(=O)c3ccc(C(F)(F)F)nc3)on2)cc1 [YP-63] | 154 | strong inhibitory activity | 287 | strong inhibitory activity | 132 | strong inhibitory activity |
| O=C(OCc1cc(-c2ccc(Br)cc2)no1)c1ccc(C(F)(F)F)nc1 [YP-73] | 207 | strong inhibitory activity | – | strong inhibitory activity | 43 | strong inhibitory activity |
| Cc1ccc(-c2cc(COC(=O)c3ccc(C(F)(F)F)nc3C)on2)cc1 [YP-78] | 198 | strong inhibitory activity | 72.5 | strong inhibitory activity | 160 | strong inhibitory activity |
| Cc1nc(C(F)(F)F)ccc1C(=O)OCc1cc(-c2ccc(Cl)cc2)no1 [YP-89] | 896 | strong inhibitory activity | 279 | strong inhibitory activity | 124 | strong inhibitory activity |
| O=C(OCc1cc(-c2ccc(Cl)cc2)no1)c1ccc(Oc2ccccc2)nc1 [YP-108] | 241 | strong inhibitory activity | – | strong inhibitory activity | 112 | strong inhibitory activity |
